The subject of data set [1] is rodent models of depression. Particulars: in vivo; cited from earlier work.
Data set [2] concerns 1-methyl-4-phenyl-1,2,3,6-tetrahydropyridine-treated primates. The following applies: monkey studies; Iravani et al. 2003; cited from earlier work.
In data set [3] the target is T1, human 5-HT1b receptor (Homo sapiens, UniProt P28222).
T1 construct: expressed in transfected cells; host or cells: CHO-K1
The data set can be described thus: GTPγS assay, agonist testing, 5-HT1b. It is filed as biochemical. Particulars: human recombinant cell lines; FIG. 1; relevant plasma concentration (<0.5 μM). The protocol:
(§1) Eltoprazine was tested for activity on the human serotonin HT1a and 5-HT1b receptors using a GTPγS assay. Recombinant membranes obtained from CHO-K1 cells expressing either the 5-HT1a or 5-HT1b receptors were mixed with GDP (volume:volume) and incubated for at least 15 min on ice. In parallel, GTPγ[35S] was mixed with the beads (volume:volume) just before starting the reaction. The following reagents were successively added in the wells of an Optiplate (Perkin Elmer): 50 μl of test compound, 20 μl of the membranes:GDP mix, 10 μl of assay buffer (for agonist testing) and 20 μl of the GTPγ[35S]:beads mix. The plates were covered with a top seal, shaken on an orbital shaker for 2 min, and then incubated for 1 hour at room temperature. Then the plates were centrifuged for 10 min at 2000 rpm, incubated at room temperature 1 hour and counted for 1 min/well with a PerkinElmer TopCount reader.

The target of data set [4] is T2, human serotonin HT1a receptor (Homo sapiens, UniProt P08908).
T2 construct: expressed in transfected cells; host or cells: CHO-K1
T2 sequence (P08908 1-422): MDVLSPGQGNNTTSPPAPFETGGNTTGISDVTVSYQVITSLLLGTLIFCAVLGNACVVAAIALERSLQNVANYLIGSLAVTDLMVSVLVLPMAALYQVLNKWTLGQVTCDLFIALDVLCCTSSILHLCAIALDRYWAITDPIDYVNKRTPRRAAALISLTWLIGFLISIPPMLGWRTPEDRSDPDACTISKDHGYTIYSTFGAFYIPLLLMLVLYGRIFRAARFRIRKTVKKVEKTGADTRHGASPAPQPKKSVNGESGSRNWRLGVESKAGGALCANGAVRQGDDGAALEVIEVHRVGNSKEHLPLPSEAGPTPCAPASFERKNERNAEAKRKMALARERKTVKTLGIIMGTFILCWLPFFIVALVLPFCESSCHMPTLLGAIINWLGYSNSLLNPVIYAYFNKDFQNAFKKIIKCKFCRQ
The data set is described as follows: GTPγS assay, agonist testing, 5-HT1a. The format is biochemical. Particulars: human recombinant cell lines; FIG. 1; relevant plasma concentration (<0.5 μM). The procedure: as §1

The target of data set [5] is dopamine D2 receptor (Homo sapiens, UniProt P14416). The data set can be described thus: Affinity for dopamine D2 receptor. It is filed as binding.
Data set [6] concerns the target T3, 5-HT2a recombinant receptor (Homo sapiens, UniProt P28223).
T3 construct: expressed in transfected cells
The data set is described as follows: Aequorin cell line functional assay, 5-HT2a. The format is cell-based. Particulars: human recombinant cell lines; FIG. 1; relevant plasma concentration (<0.5 μM). The procedure:
(§2) Aequorin cell lines expressing the 5-HT2a, 5-HT2b and 5-HT2c non-edited (ne) recombinant receptors were used to evaluate the functional activity of eltoprazine. Aequorin cells grown 18 hours prior to the test in media without antibiotics were detached by gentle flushing with PBS-EDTA (5 mM EDTA), recovered by centrifugation and resuspended in “assay buffer” (DMEM/HAM's F12 with HEPES+0.1% BSA protease free). Cells were incubated at room temperature for at least 4 h with Coelenterazine h (Molecular Probes). The reference agonist used were 5-HT and a-methyl-5-HT. For agonist testing, 50 μl of cell suspension were injected on 50 μl of test compound or reference agonist plated in a 96-well plate. The resulting emission of light was recorded using the Hamamatsu Functional Drug Screening System 6000 (FDSS 6000).

The subject of data set [7] is unilaterally 6-OHDA-lesioned rats. The data set is described as follows: L-DOPA-induced dyskinesia (AIM scores) in 6-OHDA-lesioned rat model of Parkinson's disease. It is filed as in vivo. The following applies: eltoprazine hydrochloride 0.08, 0.3, 1.25 and 5 mg/kg s.c.; after 21 days of L-DOPA; FIG. 2. The protocol:
(§3) Male Sprague Dawley rats (Elevage Janvier, Le Genest Saint Isle, France) weighing between 220 and 250 g at the beginning of the study are used in these experiments. They are housed under a 12-hr light/dark cycle with free access to standard pelleted food and tap water. Animal treatment and experimental procedures are approved by local ethical committees (Regierungspräsidium Darmstadt; Germany).
(§4) Dopamine-denervating lesions are performed on rats anaesthetized with a 5:1 mixture of ketamine and xylazine (1 ml/kg, i.p.). […] The animals' turning behaviour is recorded in an automated rotometer (TSE Rotameter System, TSE—Systems GmbH, Bad Homburg, Germany) over a 90-min period after the intraperitoneal (i.p.) injection of 2.5 mg/kg dexamphetamine sulphate dissolved in saline. […]
In order to evaluate a the severity of LID, AIMs are recorded every second day as described by Cenci et al. (1998). […]
Eur J Neurosci 1998 10:2694-2706. […] Each rat is scored on a severity scale from 0 to 4 based on its frequency and persistence (1=occasional; 2=frequent; 3=continuous but interrupted by sensory distraction; 4=continuous, severe and not interrupted by sensory distraction). […]

Data set [8] shares this test system. The data set is described as follows: Turning behaviour induced by high dose of L-DOPA in 6-OHDA-lesioned rats. Particulars: 0.3, 1.25 and 5 mg/kg, 30 min before test, FIG. 3. It is filed as in vivo, rat. The protocol: as §3, §4
In order to evaluate the effect of eltoprazine on parkinsonian symptoms and its interaction with L-DOPA, rotational behaviour is evaluated. The numbers of ipsilateral and contralateral turns are recorded in an automated rotometer (TSE Rotameter System, TSE—Systems GmbH, Bad Homburg, Germany) over a period of 180 min. […]

Data set [9] addresses T4, 5-HT2c non-edited (ne) recombinant receptor (Homo sapiens, UniProt P28335).
T4 construct: expressed in transfected cells
T4 sequence (P28335 33-458): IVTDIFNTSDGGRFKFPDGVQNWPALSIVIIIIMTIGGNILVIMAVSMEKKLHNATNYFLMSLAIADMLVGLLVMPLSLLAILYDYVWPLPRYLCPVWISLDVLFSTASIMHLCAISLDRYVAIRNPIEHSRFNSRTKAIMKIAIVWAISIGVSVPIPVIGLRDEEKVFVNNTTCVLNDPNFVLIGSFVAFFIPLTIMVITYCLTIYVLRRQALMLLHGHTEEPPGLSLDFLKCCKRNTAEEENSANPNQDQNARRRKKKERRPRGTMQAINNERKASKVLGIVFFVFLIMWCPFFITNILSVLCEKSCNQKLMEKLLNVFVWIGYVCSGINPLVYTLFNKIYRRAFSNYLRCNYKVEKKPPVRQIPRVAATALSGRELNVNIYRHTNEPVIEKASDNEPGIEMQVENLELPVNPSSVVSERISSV
The data set is described as follows: Aequorin cell line functional assay, 5-HT2c non-edited. The format is cell-based. The following applies: human recombinant cell lines; FIG. 1; relevant plasma concentration (<0.5 μM). The protocol:
as §2

The values below come from patent publication US20110288105A1, “ELTOPRAZINE FOR THE TREATMENT OF L-DOPA-INDUCED DYSKINESIA” (Merz Pharma GmbH & Co. KGaA, priority 2008, published 2011).

Entries after “also recorded” stand apart in the source; their conditions may differ.

dopamine D2 receptor, sequence (P14416 whole entry, species assumed): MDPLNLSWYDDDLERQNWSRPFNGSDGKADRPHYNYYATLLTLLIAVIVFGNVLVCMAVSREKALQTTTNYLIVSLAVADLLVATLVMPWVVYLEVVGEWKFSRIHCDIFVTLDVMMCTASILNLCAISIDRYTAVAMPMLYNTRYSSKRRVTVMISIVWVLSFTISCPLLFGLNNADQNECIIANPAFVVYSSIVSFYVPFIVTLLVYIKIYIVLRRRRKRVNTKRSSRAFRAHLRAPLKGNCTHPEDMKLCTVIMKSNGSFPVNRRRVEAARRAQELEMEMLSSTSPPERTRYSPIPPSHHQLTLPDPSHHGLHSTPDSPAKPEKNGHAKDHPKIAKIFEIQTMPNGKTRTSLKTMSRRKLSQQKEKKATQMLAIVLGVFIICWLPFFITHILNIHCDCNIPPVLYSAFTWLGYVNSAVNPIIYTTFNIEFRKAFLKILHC
T3 sequence (P28223 whole entry): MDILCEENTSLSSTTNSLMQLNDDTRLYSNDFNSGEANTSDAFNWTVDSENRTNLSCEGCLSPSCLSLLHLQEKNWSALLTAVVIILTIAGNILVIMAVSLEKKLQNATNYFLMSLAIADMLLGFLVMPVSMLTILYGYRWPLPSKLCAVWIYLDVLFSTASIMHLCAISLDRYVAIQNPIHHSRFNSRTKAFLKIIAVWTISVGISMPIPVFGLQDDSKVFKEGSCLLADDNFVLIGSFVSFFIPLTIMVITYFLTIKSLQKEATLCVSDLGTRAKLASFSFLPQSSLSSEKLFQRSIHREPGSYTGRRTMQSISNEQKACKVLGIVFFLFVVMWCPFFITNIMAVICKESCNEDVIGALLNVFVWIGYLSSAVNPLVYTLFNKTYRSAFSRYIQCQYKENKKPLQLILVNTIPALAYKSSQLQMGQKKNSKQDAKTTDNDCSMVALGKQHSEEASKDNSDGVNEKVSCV
T1 sequence (P28222 whole entry): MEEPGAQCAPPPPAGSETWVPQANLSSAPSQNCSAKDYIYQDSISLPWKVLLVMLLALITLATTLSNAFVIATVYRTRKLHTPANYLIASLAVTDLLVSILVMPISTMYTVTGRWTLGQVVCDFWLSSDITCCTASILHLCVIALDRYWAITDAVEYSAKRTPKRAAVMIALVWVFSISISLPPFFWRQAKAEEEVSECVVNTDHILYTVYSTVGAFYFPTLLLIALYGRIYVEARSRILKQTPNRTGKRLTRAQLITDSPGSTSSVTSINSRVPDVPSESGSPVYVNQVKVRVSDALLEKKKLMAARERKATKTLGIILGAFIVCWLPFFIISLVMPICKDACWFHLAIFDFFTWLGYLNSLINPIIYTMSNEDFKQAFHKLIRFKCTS

`COc1ccc2c(c1O[C@H]1CCNC1)CCC2` [Org 37684]: in data set [1], the “effect in rodent models of depression” value was “positive effects”.
Regarding `C[C@H](N)Cn1ccc2cc(F)c(Cl)cc21` [Ro 60-0175], in data set [1], the “effect in rodent models of depression” value is “positive effects”.
As to `COc1ccc2[nH]cc(C3=CCNCC3)c2c1` [Ru-24969], the “effect on motor symptoms / side effects” value in data set [2] is recorded as “worsening of motor symptoms and/or development of side effects”.
For the compound `c1cc2c3c(c1)[C@H]1CCC[C@H]1N3CCNC2` [WAY-163909], the “effect in rodent models of depression” value in [1] is given as “positive effects”.
Turning to `CCc1cc2c(ccc3cnn(C[C@H](C)N)c32)o1` [YM348], in [1], the “effect in rodent models of depression” value is recorded as “positive effects”.
In the case of `c1cc2c(c(N3CCNCC3)c1)OCCO2` [eltoprazine, 1-(2,3-dihydro-1,4-benzodioxin-5-yl)piperazine], the “functional action on 5-HT1b receptor” value in data set [3] was “partial agonistic action”. For the same compound, the “functional action on 5-HT1a receptor” value in [4] is “weak agonistic action”. Further, in [5], the “affinity for the dopamine D2 receptor” value is recorded as “devoid of significant affinity”. In addition, the “functional action on 5-HT2a receptor” value in data set [6] was “partial agonistic action”. Moreover, the “effect on AIM scores (L-DOPA-induced dyskinesia)” value in data set [7] is listed as “significantly reverses, in a dose-dependent manner”. Also, in data set [8], the “interference with the antiparkinsonian effect of L-DOPA (turning behaviour)” value is “does not interfere with the antiparkinsonian effect of L-DOPA; also recorded: does not interfere with the anti-parkinsonian effect of L-DOPA”. Also, the “functional action on 5-HT2c receptor” value in data set [9] is recorded as “agonist”.
As for `Clc1cccc(N2CCNCC2)c1` [mCPP], in data set [1], the “effect in rodent models of depression” value is reported as “positive effects”.
